According to ChEMBL document CHEMBL3992492, “Sulfoximines from a Medicinal Chemist's Perspective: Physicochemical and in vitro Parameters Relevant for Drug Discovery” (Eur J Med Chem, 2017):
In brackets after ≈: the same amount, converted by molar mass.

Legend:
[1] = Apparent partition coefficient, log P of the compound in n-octanol/aqueous mixture by potentiometric titration method; assay type: physicochemical
[2] = Dissociation constant, pKb of the compound in aqueous/organic mixture at pH 2 to 12 by potentiometric titration method; assay type: physicochemical; settings: buffer
physchem [3] = settings: acetonitrile/water mixture
Description: Solubility of the compound in acetonitrile/water mixture at 10 mM measured after 24 by HPLC-UV method

in vitro [4] = settings: human, liver microsomes
in vitro [5] = settings: PAMPA, pH 7.4
Description: Apparent permeability of the compound at pH 7.4 by PAMPA

in vitro [6] = settings: human, liver microsomes; remark: listed apart in the source
Description: Half life in human liver microsomes at 1 uM in presence of NADPH by LC-MS/MS method

physchem [7] = settings: octanol/water, pH 10
physchem [8] = settings: aqueous
[9] = Drug degradation in pH >10 NH3 after 7 days by HPLC method
[10] = Drug degradation in pH <1 HCl after 7 days by HPLC method

| Structure (SMILES) | logP [1] | pKb [2] | solubility at 10000 µM (physchem [3]) [µg/mL] | hepatic extraction ratio at 1 µM (in vitro [4]) | Papp (in vitro [5]) [×10⁻⁶ cm/s] | half-life at 1 µM (in vitro [6]) [h] | logP (physchem [7]) | solubility thermodynamic (physchem [8]) [µg/mL] | Drug degradation [9] [%] | Drug degradation [10] [%] |
| --- | --- | --- | --- | --- | --- | --- | --- | --- | --- | --- |
| O=S1(=Nc2ccncc2)CCCCC1 | -2.6 | 7.2 | 42 (≈ 200 µM) | < 0.23 | 5.7 | > 2.17 |  |  |  |  |
| CNC(=O)c1ccc(C(F)(F)F)cc1 |  |  |  | < 0.23 | 5.7 | > 2.17 | 0.5 | 200 (≈ 984 µM) |  |  |
| CC(C)(C)S(C)(=O)=Nc1ccc(C(F)(F)F)cc1 (stereo not given) | 3.1 |  | 22 (≈ 78.8 µM) |  |  |  |  |  |  |  |
| CS(C)(=O)=NC(=O)Nc1ccc(C(F)(F)F)cc1 |  |  | 44 (≈ 157 µM) | < 0.23 | 4.3 | > 2.17 | 1.6 | 40 (≈ 143 µM) | 14 | < 10 |
| C[S+]([O-])c1ccc(C(F)(F)F)cc1 (stereo not given) |  |  | > 46 |  |  |  | -0.3 | 11100 (≈ 53300 µM) |  |  |
| CS(=O)(=Nc1ccc(C(F)(F)F)cc1)c1ccncc1 (stereo not given) | 2.6 |  | 44 (≈ 147 µM) | 0.41 | 6.2 | 0.933 |  |  |  |  |
| COc1ccc(N=S2(=O)CCCCC2)cc1 | -0.1 |  | > 51 | < 0.23 | 9.1 | > 2.17 |  | 900 (≈ 3760 µM) |  |  |
| CS(=O)(=O)Oc1ccc(C(F)(F)F)cc1 |  |  |  |  |  |  | 4.3 | 300 (≈ 1250 µM) |  |  |
| CN=S(=O)(NC)c1ccc(C(F)(F)F)cc1 (stereo not given) |  |  |  | < 0.23 | 9.8 | > 2.17 | 0.4 | 1200 (≈ 4760 µM) | < 10 | < 10 |
| CC(C)(C)OC(=O)c1ccc(C(F)(F)F)cc1 |  |  | 7 (≈ 28.4 µM) |  |  |  | 4.8 | 20 (≈ 81.2 µM) |  |  |
| C[S+]([O-])Cc1ccc(C(F)(F)F)cc1 (stereo not given) |  |  | > 51 | 0.25 | 6.3 | 1.83 | -0.5 | 4300 (≈ 19300 µM) |  |  |
| CN=S(C)(=O)c1ccc(C(F)(F)F)cc1 (stereo not given) |  |  | > 54 | < 0.23 | 11 | > 2.17 | 0.1 | 2400 (≈ 10100 µM) | < 10 | < 10 |
| CN(C)S(C)(=O)=Nc1ccc(C(F)(F)F)cc1 (stereo not given) |  |  | 41 (≈ 154 µM) | 0.48 | 7.6 | 0.7 | 2.4 | 70 (≈ 263 µM) |  |  |
| CCS(C)(=O)=Nc1ccc(C(F)(F)F)cc1 (stereo not given) | 2 |  | > 51 | < 0.23 | 7.7 | > 2.17 |  |  |  |  |
| N#Cc1ccc(N=S2(=O)CCCCC2)cc1 | 1.1 |  | 45 (≈ 192 µM) | < 0.23 | 7.9 | > 2.17 |  |  |  |  |
| Cn1cc(N=S2(=O)CCCCC2)cn1 | -3.9 |  | 39 (≈ 183 µM) | < 0.23 | 3.2 | > 2.17 |  |  |  |  |
| NC(=O)c1ccc(C(F)(F)F)cc1 |  |  | > 44 |  |  |  | 0.3 | 300 (≈ 1590 µM) |  |  |
| O=S1(=Nc2ccccc2Cl)CCCCC1 | 2 |  | > 50 | 0.58 | 12 | 0.467 |  | 500 (≈ 2050 µM) |  |  |
| CS(=O)(=O)c1ccc(C(F)(F)F)cc1 |  |  | > 47 |  |  |  | 1.5 | 300 (≈ 1340 µM) |  |  |
| CC(C)(C)NC(=O)Nc1ccc(C(F)(F)F)cc1 |  |  | < 1 | < 0.23 | 5.1 | > 2.17 | 3.4 | 20 (≈ 76.8 µM) |  |  |
| CN(C)S(=O)(=O)c1ccc(C(F)(F)F)cc1 |  |  | 47 (≈ 186 µM) |  |  |  | 2.7 | 90 (≈ 355 µM) |  |  |
| CS(C)(=N)=NC(=O)c1ccc(C(F)(F)F)cc1 |  |  |  | < 0.23 | 9.2 | > 2.17 | 0.4 | 8100 (≈ 30700 µM) | 34 | > 90 |
| C[S@@](=O)(=Nc1ccc(C(F)(F)F)cc1)c1ccccc1 | 3.7 |  | 17 (≈ 56.8 µM) | < 0.23 | 3.5 | > 2.17 |  |  |  |  |
